How the values were obtained:
[1] = test system: Mycobacterium tuberculosis Erdman (autoluminescent); test: total FIC50 (Loewe) at 50% inhibition, three-drug combination (log2); higher = more antagonistic
Description: (§1)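 DiaMOND equipotent three-drug combination dose responses (10 doses, 1.5- or 2-fold spacing, centred on IC90) against autoluminescent M. tuberculosis Erdman in 8 in vitro models. Read-out is OD600, or luminescence for the intracellular and dormancy models, normalised to untreated wells. Hill-fit Einf, AUC25 and GRinf are potency metrics; FIC50 and FIC90 are total Loewe fractional inhibitory concentrations as log2 (negative = synergy).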

[2] = test system: Mycobacterium tuberculosis Erdman (autoluminescent); test: total FIC90 (Loewe) at 90% inhibition, three-drug combination (log2); higher = more antagonistic
Description: as §1

[3] = test system: Mycobacterium tuberculosis Erdman (autoluminescent); test: Einf, fitted maximum growth inhibition of three-drug combination (fraction); higher = stronger maximal inhibition
Description: as §1

[4] = test system: Mycobacterium tuberculosis Erdman (autoluminescent); test: AUC25, normalised area under dose response up to IC25 (three-drug combination) (fraction (0-1)); higher = more potent at low dose
Description: as §1

[5] = test system: Mycobacterium tuberculosis Erdman (autoluminescent); test: GRinf, maximum normalised growth rate inhibition (three-drug combination) (unitless (-1 to 1)); higher = less effect (negative = killing)
Description: as §1

COc1nc2ccc(Br)cc2cc1[C@@H](c1ccccc1)[C@@](O)(CCN(C)C)c1cccc2ccccc12 [bedaquiline] + NNC(=O)c1ccncc1 [isoniazid] + CC(=O)NC[C@H]1CN(c2ccc(N3CCOCC3)c(F)c2)C(=O)O1 [linezolid]
Settings | AUC25, [4] | Einf, [3] | GRinf, [5] | total FIC50, [1] | total FIC90, [2]
in vitro model: acidic pH 5.7, time point: constant (~7 days, model-specific) | 0.106 | 0.912 | -0.504 | 0.42 | –
in vitro model: acidic pH 5.7, time point: terminal (~4-5 doublings, model-specific) | 0.099 | 0.977 | -0.207 | 0.426 | 0.522
in vitro model: intracellular J774, time point: constant = terminal | – | 0.898 | -0.0256 | – | 0.82

Settings | AUC25, [4] | Einf, [3] | GRinf, [5] | total FIC50, [1] | total FIC90, [2]
in vitro model: butyrate, time point: constant (~7 days, model-specific) | 0.0832 | 0.917 | -0.00837 | 0.739 | 1.08
in vitro model: butyrate, time point: terminal (~4-5 doublings, model-specific) | 0.0647 | 0.962 | -0.0285 | 0.794 | 0.944
in vitro model: cholesterol 0.05 mM, time point: constant (~7 days, model-specific) | 0.139 | 0.735 | -0.291 | 0.27 | –
in vitro model: cholesterol 0.05 mM, time point: terminal (~4-5 doublings, model-specific) | 0.147 | 0.945 | -0.463 | 4.34 | 0.413
in vitro model: cholesterol-high 0.2 mM, time point: constant (~7 days, model-specific) | 0.114 | 0.955 | -0.63 | 0.506 | 1.92
in vitro model: cholesterol-high 0.2 mM, time point: terminal (~4-5 doublings, model-specific) | 0.0961 | 1 | -0.702 | 0.549 | 0.793
in vitro model: dormancy (butyrate + nitrate, low O2), time point: constant (~7 days, model-specific) | 0.0688 | 0.93 | 0.215 | 0.921 | 0.532
in vitro model: dormancy (butyrate + nitrate, low O2), time point: terminal (~4-5 doublings, model-specific) | 0.0346 | 0.989 | -0.127 | 0.777 | 0.255
in vitro model: standard 7H9 glycerol, time point: constant = terminal | 0.0715 | 0.957 | -0.0711 | 0.0514 | -0.28
in vitro model: valerate, time point: constant (~7 days, model-specific) | 0.107 | 0.928 | -0.345 | 0.58 | 0.911
in vitro model: valerate, time point: terminal (~4-5 doublings, model-specific) | 0.0588 | 0.959 | -0.111 | 0.894 | 0.84

COc1nc2ccc(Br)cc2cc1[C@@H](c1ccccc1)[C@@](O)(CCN(C)C)c1cccc2ccccc12 [bedaquiline] + NNC(=O)c1ccncc1 [isoniazid] + CO[C@H]1/C=C/O[C@@]2(C)Oc3c(C)c(O)c4c(O)c(c(/C=N/N5CCN(C6CCCC6)CC5)c(O)c4c3C2=O)NC(=O)/C(C)=C\C=C\[C@H](C)[C@H](O)[C@@H](C)[C@@H](O)[C@@H](C)[C@H](OC(C)=O)[C@@H]1C [rifapentine]
Settings | AUC25, [4] | Einf, [3] | GRinf, [5] | total FIC50, [1] | total FIC90, [2]
in vitro model: acidic pH 5.7, time point: constant (~7 days, model-specific) | 0.0986 | 0.958 | -0.468 | 0.854 | –
in vitro model: acidic pH 5.7, time point: terminal (~4-5 doublings, model-specific) | 0.0903 | 0.998 | -0.375 | 0.671 | 0.815
in vitro model: intracellular J774, time point: constant = terminal | – | 0.92 | -0.0955 | – | 0.118

Settings | AUC25, [4] | Einf, [3] | GRinf, [5] | total FIC50, [1] | total FIC90, [2]
in vitro model: butyrate, time point: constant (~7 days, model-specific) | 0.0748 | 0.93 | -0.0408 | 0.749 | -0.0255
in vitro model: butyrate, time point: terminal (~4-5 doublings, model-specific) | 0.0596 | 0.969 | -0.0505 | 0.65 | 0.51
in vitro model: cholesterol 0.05 mM, time point: constant (~7 days, model-specific) | 0.0859 | 0.689 | -0.113 | 0.606 | –
in vitro model: cholesterol 0.05 mM, time point: terminal (~4-5 doublings, model-specific) | 0.0803 | 0.905 | -0.101 | 0.573 | 0.195
in vitro model: cholesterol-high 0.2 mM, time point: constant (~7 days, model-specific) | 0.0656 | 0.954 | -0.564 | 0.787 | –
in vitro model: cholesterol-high 0.2 mM, time point: terminal (~4-5 doublings, model-specific) | 0.06 | 1 | -0.621 | 0.962 | 0.847
in vitro model: dormancy (butyrate + nitrate, low O2), time point: constant (~7 days, model-specific) | 0.0684 | 0.89 | 0.303 | 0.628 | 0.878
in vitro model: dormancy (butyrate + nitrate, low O2), time point: terminal (~4-5 doublings, model-specific) | 0.0424 | 0.986 | -0.0574 | 0.557 | 0.296
in vitro model: standard 7H9 glycerol, time point: constant = terminal | 0.0599 | 0.942 | -0.00945 | 0.229 | -0.235
in vitro model: valerate, time point: constant (~7 days, model-specific) | 0.0499 | 0.906 | -0.146 | 0.867 | –
in vitro model: valerate, time point: terminal (~4-5 doublings, model-specific) | 0.0394 | 0.958 | -0.122 | 1.05 | 1

COc1nc2ccc(Br)cc2cc1[C@@H](c1ccccc1)[C@@](O)(CCN(C)C)c1cccc2ccccc12 [bedaquiline] + NNC(=O)c1ccncc1 [isoniazid] + CO[C@H]1/C=C/O[C@@]2(C)Oc3c(C)c(O)c4c(O)c(c(/C=N/N5CCN(C)CC5)c(O)c4c3C2=O)NC(=O)/C(C)=C\C=C\[C@H](C)[C@H](O)[C@@H](C)[C@@H](O)[C@@H](C)[C@H](OC(C)=O)[C@@H]1C [rifampicin]
Settings | AUC25, [4] | Einf, [3] | GRinf, [5] | total FIC50, [1] | total FIC90, [2]
in vitro model: acidic pH 5.7, time point: constant (~7 days, model-specific) | 0.108 | 0.955 | -0.45 | 0.796 | –
in vitro model: acidic pH 5.7, time point: terminal (~4-5 doublings, model-specific) | 0.089 | 0.99 | -0.282 | 0.663 | 0.706
in vitro model: intracellular J774, time point: constant = terminal | – | 0.965 | -0.25 | – | 0.354

Settings | AUC25, [4] | Einf, [3] | GRinf, [5] | total FIC50, [1] | total FIC90, [2]
in vitro model: butyrate, time point: constant (~7 days, model-specific) | 0.102 | 0.946 | -0.0859 | 0.575 | 0.602
in vitro model: butyrate, time point: terminal (~4-5 doublings, model-specific) | 0.0879 | 0.977 | -0.052 | 0.331 | 0.56
in vitro model: cholesterol 0.05 mM, time point: constant (~7 days, model-specific) | 0.0808 | 0.689 | -0.157 | -0.117 | –
in vitro model: cholesterol 0.05 mM, time point: terminal (~4-5 doublings, model-specific) | 0.0785 | 0.918 | -0.164 | 0.536 | -0.254
in vitro model: cholesterol-high 0.2 mM, time point: constant (~7 days, model-specific) | 0.0768 | 0.978 | -0.43 | 0.606 | –
in vitro model: cholesterol-high 0.2 mM, time point: terminal (~4-5 doublings, model-specific) | 0.0551 | 0.998 | -0.606 | 0.868 | 0.598
in vitro model: dormancy (butyrate + nitrate, low O2), time point: constant (~7 days, model-specific) | 0.0706 | 0.908 | 0.222 | 0.635 | 0.621
in vitro model: dormancy (butyrate + nitrate, low O2), time point: terminal (~4-5 doublings, model-specific) | 0.0374 | 0.987 | -0.16 | 0.347 | 0.0703
in vitro model: standard 7H9 glycerol, time point: constant = terminal | 0.0722 | 0.939 | -0.0733 | 0.27 | 0.0151
in vitro model: valerate, time point: constant (~7 days, model-specific) | 0.0578 | 0.912 | -0.0907 | 1.13 | –
in vitro model: valerate, time point: terminal (~4-5 doublings, model-specific) | 0.0274 | 0.963 | -0.0942 | 1.33 | 1.01
